Data published in patent EP3046573B1, “AMYLIN ANALOGUES” (Zealand Pharma A/S, priority 2013, dated 2015).
Like-named read-outs stand apart in the source and are kept apart here. Numbered stars: 1 amine (or outer) side, 2 acyl side, 3 side chain; on linkers, the order of the positions; unused ones are H or OH. Bridge positions count the residues as written; N and C are the ends. Square brackets hold non-standard residues; d marks the D form. Peptide text beside a SMILES is read from it. * marks the point of attachment. C20 diacid = O=C(O)CCCCCCCCCCCCCCCCCCC(=O)*; γGlu = O=C(O)[C@H](CCC(=O)[*:2])N[*:1]; NMeI = CC[C@H](C)[C@H](NC)C(=O)O; Sar = CNCC(=O)O

Key:
[1] = target: T1, human calcitonin receptor (hCTR2) (Homo sapiens, UniProt P30988); assay: hCTR2 assay: induction of cAMP (AlphaScreen cAMP Assay kit) in COS7 cells expressing hCTR2; format: cell-based
T1 construct: expressed in transfected cells
T1 sequence (P30988 25-474): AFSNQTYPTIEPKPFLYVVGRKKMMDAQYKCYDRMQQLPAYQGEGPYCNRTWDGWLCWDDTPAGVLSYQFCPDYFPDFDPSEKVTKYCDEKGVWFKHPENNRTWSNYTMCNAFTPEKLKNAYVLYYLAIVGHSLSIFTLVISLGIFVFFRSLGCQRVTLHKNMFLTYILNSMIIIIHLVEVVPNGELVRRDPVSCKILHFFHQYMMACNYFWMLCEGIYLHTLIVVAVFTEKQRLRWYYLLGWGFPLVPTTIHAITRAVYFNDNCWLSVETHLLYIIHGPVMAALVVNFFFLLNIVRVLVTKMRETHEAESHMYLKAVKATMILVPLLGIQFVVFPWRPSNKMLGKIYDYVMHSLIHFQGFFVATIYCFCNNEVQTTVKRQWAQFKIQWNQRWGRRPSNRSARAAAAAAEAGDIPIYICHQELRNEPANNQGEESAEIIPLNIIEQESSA
Outline: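 cAMP read-out by AlphaScreen after cell lysis; EC50 and % efficacy vs pramlintide from 4-parameter logistic fitting. Agonist stimulation: hCTR2-COS7 stable cells, 15 min, 37° C, 100 µM IBMX, 0.1% casein, Tyrode/HEPES pH 7.4.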

[2] = target: T2, human amylin receptor 3 (hAMYR3) consisting of hCTR2 co-expressed with human Receptor Activity Modifying Protein 3 (hRAMP3) (Homo sapiens, UniProt O60896+P30988); assay: hAMYR3 assay: induction of cAMP (AlphaScreen cAMP Assay kit) in COS7 cells expressing hAMYR3; format: cell-based
T2 construct: expressed in transfected cells
T2 sequence (P30988 25-474): T1 sequence (P30988 25-474)
T2 sequence (O60896 24-148 partner): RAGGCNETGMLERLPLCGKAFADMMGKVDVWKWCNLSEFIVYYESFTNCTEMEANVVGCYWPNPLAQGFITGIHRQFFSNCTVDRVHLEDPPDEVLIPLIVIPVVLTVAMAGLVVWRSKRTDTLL
Outline: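 cAMP accumulation read by AlphaScreen in lysates of RAMP-naive COS7 cells stably transfected with hCTR2 plus hRAMP3. Cells exposed to peptide dilutions for 15 min, 37° C, with 100 µM IBMX; 4PL fitting gave EC50 and efficacy relative to pramlintide.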

[3] = Solubility assessment (turbidity absorbance at 325 nm); format: physicochemical; conditions: stock 2 mg/ml diluted 1:1, ambient temperature (typically 25°C), n=1; for Solubility, Acetate buffer pH 4: 100 mM acetate buffer pH 4.0; for Solubility, Acetate buffer pH 5: 100 mM acetate buffer pH 5.0; for Solubility, Histidine buffer pH 6: 100 mM histidine buffer pH 6.0; for Solubility, Histidine buffer pH 7: 100 mM histidine buffer pH 7.0; for Solubility, Phosphate buffer pH 6: 100 mM phosphate buffer pH 6.0; for Solubility, Phosphate buffer pH 7: 100 mM phosphate buffer pH 7.0; for Solubility, Phosphate buffer pH 7.5: 100 mM phosphate buffer pH7.5
Outline: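 Turbidity read as absorbance at 325 nm (also 280 nm), single samples at ambient temperature (typically 25°C); ≤ 0.02 units counts as ≥ 1 mg/ml soluble. Samples made by 1:1 dilution of a 2 mg/ml acidic stock into 100 mM acetate, histidine or phosphate buffers, pH 4.0–7.5.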

SMILES | EC50 [1] [nM] | EC50 [2] [nM] | Solubility, Acetate buffer pH 4 [3] | Solubility, Acetate buffer pH 5 [3] | Solubility, Histidine buffer pH 6 [3] | Solubility, Histidine buffer pH 7 [3] | Solubility, Phosphate buffer pH 6 [3] | Solubility, Phosphate buffer pH 7 [3] | Solubility, Phosphate buffer pH 7.5 [3] | EC50 ([2]; cAMP induction in COS7 cells expressing hAMYR3, average of a minimum of 3 determinations, read-out: hAMY R3 EC50) [nM]
CC[C@H](C)[C@@H](C(=O)N[C@@H](CC(C)C)C(=O)N[C@@H](CO)C(=O)N[C@@H](CO)C(=O)N[C@H](C(=O)N[C@@H](CC(N)=O)C(=O)N[C@H](C(=O)NCC(=O)N[C@@H](CO)C(=O)N[C@@H](CC(N)=O)C(=O)N[C@H](C(=O)N[C@@H](C)C(N)=O)[C@@H](C)O)C(C)C)[C@@H](C)O)N(C)C(=O)[C@H](C)NC(=O)CN(C)C(=O)[C@H](Cc1ccccc1)NC(=O)[C@H](CC(N)=O)NC(=O)[C@H](CC(N)=O)NC(=O)[C@H](CO)NC(=O)[C@H](CO)NC(=O)[C@H](CCCNC(=N)N)NC(=O)[C@H](Cc1c[nH]cn1)NC(=O)[C@H](CC(C)C)NC(=O)[C@H](Cc1ccccc1)NC(=O)[C@H](CCC(=O)O)NC(=O)[C@H](C)NC(=O)[C@H](CC(C)C)NC(=O)[C@H](CCCNC(=N)N)NC(=O)[C@H](CCC(N)=O)NC(=O)[C@@H](NC(=O)[C@H](C)NC(=O)[C@@H]1CSSC[C@H](NC(=O)[C@H](CCCNC(=N)N)NC(=O)CC[C@H](NC(=O)CCCCCCCCCCCCCCCCCCC(=O)O)C(=O)O)C(=O)N[C@@H](CC(N)=O)C(=O)N[C@@H]([C@@H](C)O)C(=O)N[C@@H](C)C(=O)N[C@@H]([C@@H](C)O)C(=O)N1)[C@@H](C)O [Compound 97, [19CD]-isoGlu-RC()NTATC()ATQRLAEFLHRSSNNF-Gly(Me)-A-Ile(Me)-LSSTNVGSNTA-NH2] ({C20 diacid-γGlu}-RCNTATCATQRLAEFLHRSSNNF[Sar]A[NMeI]LSSTNVGSNTA-NH2; disulfide 2-7) | 0.33 | 0.68 | SS (SS indicates solubility ≥ 1mg/ml) | SS (SS indicates solubility ≥ 1mg/ml) | SS (SS indicates solubility ≥ 1mg/ml) | SS (SS indicates solubility ≥ 1mg/ml) | SS (SS indicates solubility ≥ 1mg/ml) | SS (SS indicates solubility ≥ 1mg/ml) | SS (SS indicates solubility ≥ 1mg/ml) | 
CC[C@H](C)[C@@H](C(=O)N[C@@H](CC(C)C)C(=O)N[C@@H](CO)C(=O)N[C@@H](CO)C(=O)N[C@H](C(=O)N[C@@H](CC(N)=O)C(=O)N[C@H](C(=O)NCC(=O)N[C@@H](CO)C(=O)N[C@@H](CC(N)=O)C(=O)N[C@H](C(=O)N(C)CC(N)=O)[C@@H](C)O)C(C)C)[C@@H](C)O)N(C)C(=O)[C@H](C)NC(=O)CN(C)C(=O)[C@H](Cc1ccccc1)NC(=O)[C@H](CC(N)=O)NC(=O)[C@H](CC(N)=O)NC(=O)[C@H](CO)NC(=O)[C@H](CO)NC(=O)[C@H](CCCNC(=N)N)NC(=O)[C@H](Cc1c[nH]cn1)NC(=O)[C@H](CC(C)C)NC(=O)[C@H](Cc1ccccc1)NC(=O)[C@H](CCC(=O)O)NC(=O)[C@H](C)NC(=O)[C@H](CC(C)C)NC(=O)[C@H](CCCNC(=N)N)NC(=O)[C@H](CCC(N)=O)NC(=O)[C@@H](NC(=O)[C@H](C)NC(=O)[C@@H]1CSSC[C@H](NC(=O)[C@H](CCCNC(=N)N)NC(=O)CC[C@H](NC(=O)CCCCCCCCCCCCCCCCCCC(=O)O)C(=O)O)C(=O)N[C@@H](CC(N)=O)C(=O)N[C@@H]([C@@H](C)O)C(=O)N[C@@H](C)C(=O)N[C@@H]([C@@H](C)O)C(=O)N1)[C@@H](C)O [Compound 101, [19CD]-isoGlu-RC()NTATC()ATQRLAEFLHRSSNNF-Gly(Me)-A-Ile(Me)-LSSTNVGSNT-Gly(Me)-NH2] ({C20 diacid-γGlu}-RCNTATCATQRLAEFLHRSSNNF[Sar]A[NMeI]LSSTNVGSNT[Sar]-NH2; disulfide 2-7) | 0.6 | 2.7 | SS (SS indicates solubility ≥ 1mg/ml) | SS (SS indicates solubility ≥ 1mg/ml) | SS (SS indicates solubility ≥ 1mg/ml) | SS (SS indicates solubility ≥ 1mg/ml) | II (II indicates solubility ≤ 1 mg/ml) | SS (SS indicates solubility ≥ 1mg/ml) | SS (SS indicates solubility ≥ 1mg/ml) | 
CC[C@H](C)[C@H](NC(=O)[C@@H](NC(=O)[C@H](CC(N)=O)NC(=O)[C@H](CO)NC(=O)CNC(=O)[C@@H](NC(=O)[C@H](CC(N)=O)NC(=O)[C@@H](NC(=O)[C@H](CO)NC(=O)[C@H](CO)NC(=O)[C@H](CC(C)C)NC(=O)[C@H]([C@@H](C)CC)N(C)C(=O)[C@H](C)NC(=O)CN(C)C(=O)[C@H](Cc1ccccc1)NC(=O)[C@H](CC(N)=O)NC(=O)[C@H](CC(N)=O)NC(=O)[C@H](CO)NC(=O)[C@H](CO)NC(=O)[C@H](CCCNC(=N)N)NC(=O)[C@H](Cc1c[nH]cn1)NC(=O)[C@H](CC(C)C)NC(=O)[C@H](Cc1ccccc1)NC(=O)[C@H](CCC(=O)O)NC(=O)[C@H](C)NC(=O)[C@H](CC(C)C)NC(=O)[C@H](CCCNC(=N)N)NC(=O)[C@H](CCC(N)=O)NC(=O)[C@@H](NC(=O)[C@H](C)NC(=O)[C@@H]1CSSC[C@H](NC(=O)[C@H](CCCNC(=N)N)NC(=O)CC[C@H](NC(=O)CCCCCCCCCCCCCCCCCCC(=O)O)C(=O)O)C(=O)N[C@@H](CC(N)=O)C(=O)N[C@@H]([C@@H](C)O)C(=O)N[C@@H](C)C(=O)N[C@@H]([C@@H](C)O)C(=O)N1)[C@@H](C)O)[C@@H](C)O)C(C)C)[C@@H](C)O)C(N)=O [Compound 99, [19CD]-isoGlu-RC()NTATC()ATQRLAEFLHRSSNNF-Gly(Me)-A-Ile(Me)-LSSTNVGSNTI-NH2] ({C20 diacid-γGlu}-RCNTATCATQRLAEFLHRSSNNF[Sar]A[NMeI]LSSTNVGSNTI-NH2; disulfide 2-7) | 0.27 | 2.2 | SS (SS indicates solubility ≥ 1mg/ml) | SS (SS indicates solubility ≥ 1mg/ml) | SS (SS indicates solubility ≥ 1mg/ml) | SS (SS indicates solubility ≥ 1mg/ml) | II (II indicates solubility ≤ 1 mg/ml) | SS (SS indicates solubility ≥ 1mg/ml) | SS (SS indicates solubility ≥ 1mg/ml) | 
CC[C@H](C)[C@@H](C(=O)N[C@@H](CC(C)C)C(=O)N[C@@H](CO)C(=O)N[C@@H](CO)C(=O)N[C@H](C(=O)N[C@@H](CCC(=O)O)C(=O)N[C@H](C(=O)NCC(=O)N[C@@H](CO)C(=O)N[C@@H](CCC(=O)O)C(=O)N[C@H](C(=O)N1CCC[C@H]1C(N)=O)[C@@H](C)O)C(C)C)[C@@H](C)O)N(C)C(=O)[C@H](C)NC(=O)CN(C)C(=O)[C@H](Cc1ccccc1)NC(=O)[C@H](CO)NC(=O)[C@H](CO)NC(=O)[C@H](CO)NC(=O)[C@H](CO)NC(=O)[C@H](CCCNC(=N)N)NC(=O)[C@H](Cc1c[nH]cn1)NC(=O)[C@H](CC(C)C)NC(=O)[C@H](Cc1ccccc1)NC(=O)[C@H](CCC(=O)O)NC(=O)[C@H](C)NC(=O)[C@H](CC(C)C)NC(=O)[C@H](CCCNC(=N)N)NC(=O)[C@H](CC(=O)O)NC(=O)[C@@H](NC(=O)[C@H](C)NC(=O)[C@@H]1CSSC[C@H](NC(=O)[C@H](CCCNC(=N)N)NC(=O)CC[C@H](NC(=O)CCCCCCCCCCCCCCCCCCC(=O)O)C(=O)O)C(=O)N[C@@H](CCC(=O)O)C(=O)N[C@@H]([C@@H](C)O)C(=O)N[C@@H](C)C(=O)N[C@@H]([C@@H](C)O)C(=O)N1)[C@@H](C)O [Compound 150, [19CD]-isoGlu-RC()ETATC()ATDRLAEFLHRSSSSF-Gly(Me)-A-Ile(Me)-LSSTEVGSETP-NH2] ({C20 diacid-γGlu}-RCETATCATDRLAEFLHRSSSSF[Sar]A[NMeI]LSSTEVGSETP-NH2; disulfide 2-7) | 0.16 |  | SS (SS indicates solubility ≥ 1mg/ml) | SS (SS indicates solubility ≥ 1mg/ml) | SS (SS indicates solubility ≥ 1mg/ml) | SS (SS indicates solubility ≥ 1mg/ml) | SS (SS indicates solubility ≥ 1mg/ml) | SS (SS indicates solubility ≥ 1mg/ml) | SS (SS indicates solubility ≥ 1mg/ml) | 0.26
